Experimental data reported in patent publication US20100286260A1, “MILNACIPRAN FORMULATIONS” (priority 2009, published 2010).

Legend:
[1] = Conversion to cyclic degradation product F1612 in 0.1 M pH 9.0 buffer at 50° C.; format: physicochemical; conditions: 50° C. and pH 9.0
Protocol: Milnacipran hydrochloride was exposed to 0.1 M pH 9.0 buffer (glycine-NaOH) at 50° C. in a closed glass flask for several days.

[2] = format: physicochemical
Excerpt: (§1) Milnacipran can be easily processed in solvent state with conventional binder such as Povidone. However, in aqueous state the milnacipran has some unusual properties which present difficulties in drug layering approach. […] In exemplary embodiments, the PEG functions as a co-binder, anti-tacking agent, plasticizer to HPMC and as an eraser to the drug's deliquescent property.

Deliquescence = format: physicochemical; conditions: room temperature
Excerpt: as §1

uptake of dopamine = conditions: cited from earlier work

For CCN(CC)C(=O)C1(c2ccccc2)CC1CN (stereo not shown) [Milnacipran, milnacipran], which “formation of the cyclic degradation product” value [1] is on record?
Its value is “rapid formation”.

And the solubility in water [2]?
Its solubility in water is “highly soluble”.

What about the “deliquescent at RH” value (Deliquescence) of the same compound?
The value was 75-80 % RH.

And the “effect on the uptake of dopamine” value (uptake of dopamine)?
The value was “does not affect”.
